Data set [1] has as its system E. coli CCARM 1238. The data set is described as follows: microbe, parasite or virus in culture. Format: cell-based, Escherichia coli. The settings on record: E. coli CCARM 1238, antibiotic-resistant. The text has this:
(§1) To investigate the antibacterial activity of the HPA3P2 peptide prepared by the method of Example 1, the inventors first measured the minimal inhibitory concentration (MIC) that is the minimum concentration of the peptide for the strain to remain as not-decomposed.
(§2) Particularly, to measure the antibacterial activity, the standard strains were obtained. For example, Gram-negative bacteria such as E. coli (KCTC 1682) and Pseudomonas aeruginosa (KCTC 1637), and Gram-positive bacteria such as Staphylococcus aureus (KCTC […]) and Bacillus subtilis (KCTC 1918) were provided from Gene Bank, Korea Research Institute of Bioscience & Biotechnology. In addition, a variety of the antibiotic-resistant strains such as Staphylococcus aureus (CCARM 3090, 3018, 3114, 3126) and E. coli (CCARM 1229, 1238) were distributed from the culture collection at Ewha Womans University. And Pseudomonas aeruginosa (1034, 3904, 4007, 4891) were obtained from the otitis media patients at Chonnam National University Hospital. Each strain was cultured in LB medium (1% bacto-trypton, 0.5% bacto-yeast extract, 1% NaCl; Sigma, USA) until the strain grew to mid-log phase. The strain was diluted with 1% bacto-peptone medium (Difco, USA) at the density of 5×10^5 cells/100 μl, which was then inoculated in micro-titrate plate (Nunc, USA). The peptide synthesized in Example 1 and the peptides in Table 1 were added to the plate (1/2 dilution from 96 well), followed by culture at 37° C. for 6 hours. OD620 was measured by using micro-titrate plate reader (Merck Elisa reader, Germany) to determine the MIC value of each strain.

Data set [2] concerns E-coli CCARM 1229. Kind of data set: microbe, parasite or virus in culture. The conditions noted are these: E-coli CCARM 1229, antibiotic-resistant. Format: cell-based, Escherichia coli.
Text: as §1, §2

Data set [3] concerns S. aureus CCARM 3126. The data set is described as follows: microbe, parasite or virus in culture. The settings on record: S. aureus CCARM 3126, antibiotic-resistant. Format: cell-based, Staphylococcus aureus.
Text: as §1, §2

For data set [4], the system named is S. aureus CCARM 3090. Kind of data set: microbe, parasite or virus in culture. Format: cell-based, Staphylococcus aureus. The conditions noted are these: S. aureus CCARM 3090, antibiotic-resistant.
Text: as §1, §2

The subject of data set [5] is S. aureus CCARM 3114. The data set is described as follows: microbe, parasite or virus in culture. The conditions noted are these: S. aureus CCARM 3114, antibiotic-resistant. Format: cell-based, Staphylococcus aureus.
Text: as §1, §2

Data set [6] has as its system S. aureus CCARM 3018. The data set is described as follows: microbe, parasite or virus in culture. Format: cell-based, Staphylococcus aureus. The settings on record: S. aureus CCARM 3018, antibiotic-resistant.
Text: as §1, §2

Data set [7] relates to P. aeruginosa 4891. Kind of data set: microbe, parasite or virus in culture. The conditions noted are these: P. aeruginosa 4891, antibiotic-resistant, from otitis media patients. Format: cell-based, Pseudomonas aeruginosa.
Text: as §1, §2

Data set [8] deals with P. aeruginosa 3904. Kind of data set: microbe, parasite or virus in culture. Format: cell-based, Pseudomonas aeruginosa. The settings on record: P. aeruginosa 3904, antibiotic-resistant, from otitis media patients.
Text: as §1, §2

Data set [9] has as its system P. aeruginosa 4007. The data set is described as follows: microbe, parasite or virus in culture. The conditions noted are these: P. aeruginosa 4007, antibiotic-resistant, from otitis media patients. Format: cell-based, Pseudomonas aeruginosa.
Text: as §1, §2

Data set [10] deals with P. aeruginosa 1034. Kind of data set: microbe, parasite or virus in culture. The conditions noted are these: P. aeruginosa 1034, antibiotic-resistant, from otitis media patients. Format: cell-based, Pseudomonas aeruginosa.
Text: as §1, §2

Data set [11] is described as follows: Cytotoxicity in normal cell line (MTT). Format: cell-based, human. The settings on record: human, HaCaT cells (human keratinocyte cell line), read-out: EC50 (50% cytotoxicity inhibition concentration). On the procedure: (§3) To investigate whether or not the peptides prepared in Example 1 had cytotoxicity in normal cell line, the inventors investigated cytotoxicity in the human keratinocyte HaCaT cell line (Dr. N E. Fusenig, Heidelberg, Germany).
(§4) Particularly, human keratinocyte HaCaT cells were cultured in DMEM (Dulbecco's Modified Eagle's Medium) supplemented with 10% FBS (Fetal Bovine Serum), which were then distributed in a 96-well plate at the density of 2×10^4 cells/well, followed by further culture for 24 hours. The peptides prepared in Example 1 were treated at different concentrations, followed by reaction in a 5% CO2 incubator for 24 hours. Upon completion of the culture, 20 μl of phosphate buffered saline (PBS) wherein MTT (Thiazolyl Blue Tetrazolium Bromide) was dissolved at the concentration of 5 mg/ml was added to each well, followed by culture for 4 hours. The supernatant was discarded. Then, the generated MTT crystal was dissolved in 200 μl of DMSO. OD560 was measured.

The subject of data set [12] is human keratinocyte HaCaT cell line. The data set is described as follows: Cytotoxicity in normal cell line (MTT). Format: cell-based. The settings on record: HaCaT cells, 24 hours. On the procedure:
as §3, §4

Data set [13] has as its system E. coli (KCTC 1682). Format: cell-based. The conditions noted are these: Escherichia coli KCTC 1682; 37° C., 6 hours, OD620.
Text: as §1, §2

The test system of data set [14] is Pseudomonas aeruginosa (KCTC 1637). Format: cell-based. The settings on record: 37° C., 6 hours, OD620.
Text: as §1, §2

For data set [15], the system named is Staphylococcus aureus (KCTC 1637). Format: cell-based. The conditions noted are these: 37° C., 6 hours, OD620.
Text: as §1, §2

Data set [16] has as its system Bacillus subtilis (KCTC 1918). Format: cell-based. The settings on record: 37° C., 6 hours, OD620.
Text: as §1, §2

Data set [17] concerns human erythrocytes. Kind of data set: Hemolytic activity. Format: cell-based. The conditions noted are these: for HC10 / HC50: human erythrocytes 8% in PBS, 37° C., 1 hour; for HC10: first value of HC10/HC50 cell; for HC50: second value of HC10/HC50 cell; for hemolytic activity: human erythrocytes, up to 800 μM peptide. On the procedure:
To investigate whether or not the peptide HPA3P2 that has the folding structure as prepared in Example 1 had cytotoxicity, the hemolytic activity of the peptide having the folding structure was measured.
Particularly, human erythrocytes were diluted in PBS (pH 7.0) at the concentration of 8%, to which the peptides represented by SEQ. ID. […] Then, centrifugation was performed at 1,000 g. Hemoglobin included in the supernatant was measured by measuring OD414. To compare and measure the level of cell destruction, 1% triton X-100 (Sigma, USA) was added to the human erythrocytes, and then OD of the supernatant was measured. The cell destruction capacity of the said 1% triton X-100 was considered as 100%, based on which the erythrocyte destruction capacity of each peptide including the peptide of the invention and the peptides listed in Table 1 was calculated by the below mathematical formula 1. % hemolysis=(ODA−ODB/ODC−ODB)×100 [Mathematical Formula 1] In the above mathematical formula 1, ODA is the OD of the peptide solution measured at 414 nm, and ODB is the OD of PBS measured at 414 nm, and ODC is the OD of 1% triton X-100 measured at 414 nm.

The test system of data set [18] is E. coli cells. The data set is described as follows: SYTOX-Green fluorescence intensity in E. coli. Format: cell-based. The settings on record: E. coli 2×10^7 cells/ml, 1 μM SYTOX-Green, over time and peptide concentration. On the procedure:
The SYTOX-Green fluorescence and luminous intensity of the peptide prepared in Example 1 were measured over the time.
Particularly, E. coli cells were cultured in LB medium at 37° C. The cells were diluted in 10 mM sodium phosphate buffer at the density of 2×10^7 cells/ml. 1 μM of SYTOX-Green was treated to the cells, followed by reaction in a dark incubator for 15˜20 minutes. The comparative peptides (HPA3P(A) and Buporin-2(C)), and the experimental peptide HPA3P2(B) were treated at the minimum inhibition concentration. The increasing fluorescence intensity emitted from SYTOX-Green was measured (excitation wavelength: 484 nm, emission wavelength: 520 nm).

We go through six compounds from US9463214B2, “Antibiotic peptide derived from helicobacter pylori ribosomal protein L1 and uses thereof” (INDUSTRY-ACADEMIC COOPERATION FOUNDATION, CHOSUN UNIVERSITY, priority 2013, dated 2016).

Where “and” joins values, the source holds several entries; their conditions need not be identical. Equal entries are not always repeated. Where two headings read alike, the source gives them in different places. Ends that are not written are not given here.

Consider `CC1(C)S[C@@H]2[C@H](NC(=O)[C@H](N)c3ccccc3)C(=O)N2[C@H]1C(=O)O` [Ampicillin], for which the MIC in [1] (Escherichia coli, CCARM1238, read-out: MIC) was over 800 µM; in data set [2] (Escherichia coli, CCARM1229, read-out: MIC), over 800 µM.
For the compound `CC[C@H]1OC(=O)[C@H](C)[C@@H](O[C@H]2C[C@@](C)(OC)[C@@H](O)[C@H](C)O2)[C@H](C)[C@@H](O[C@@H]2O[C@H](C)C[C@H](N(C)C)[C@H]2O)[C@](C)(O)C[C@@H](C)C(=O)[C@H](C)[C@@H](O)[C@]1(C)O` [Erythromycin], the MIC was over 800 µM in data set [3] (Staphylococcus aureus, CCARM3126); over 800 µM in data set [4] (Staphylococcus aureus, CCARM3090); over 800 µM in data set [5] (Staphylococcus aureus, CCARM3114); over 800 µM in [6] (Staphylococcus aureus, CCARM3018).
`CCN1CCN(C(=O)N[C@@H](C(=O)N[C@@H]2C(=O)N3[C@@H]2SC(C)(C)[C@@H]3C(=O)O)c2ccccc2)C(=O)C1=O` [Piperacillin]: the MIC in data set [7] (Pseudomonas aeruginosa), in data set [8] (Pseudomonas aeruginosa), in data set [9] (Pseudomonas aeruginosa) and in data set [10] (Pseudomonas aeruginosa) was over 400 µM in each case.
“AKKVFKRLPKLFSKIWNWK-NH2 [HPA3P, AKKVFKRLPKLFSKIWNWK-NH2]”: in [11], the EC50 at 24 h was found to be 381 µM. Besides, the “EC10 (10% cytotoxicity inhibition concentration)” value in data set [12] was 151.1 µM and 151.5 µM. In data set [13], the “MIC Ec” value was found to be 1 µM. Also, the “MIC Pa” value in data set [14] worked out at 8 µM. Further, the “MIC Sa” value in [15] stood at 16 µM. Moreover, the “MIC Bs” value in data set [16] was 2 µM. Moreover, the MIC in data set [7], in [8], in data set [9], in data set [10], in [3] and in data set [4] was 1 µM each time. For the same compound, the MIC is 1 µM in data set [5], 1 µM in [6], 0.5 to 1 µM in [1] and 0.5 to 1 µM in [2]. Moreover, the HC10 in [17] was >800/>800 μM. Also, in data set [17], the HC50 is >800/>800 μM. The hemolytic activity entry in data set [17] was “not observed”.
In the case of “AKKVFKRLPKLPSKIWNWK-NH2 [HPA3P2, AKKVFKRLPKLPSKIWNWK-NH2]”, the “EC10 (10% cytotoxicity inhibition concentration)” value in [12] was found to be 180.5 µM. Besides, the “MIC Ec” value in data set [13] was found to be 16 µM. In [14], the “MIC Pa” value was determined as 16 µM. Also, the “MIC Sa” value in [15] was over 64 µM. In data set [16], the “MIC Bs” value was over 64 µM. The MIC in [7], in [8], in data set [9], in [10], in data set [3] and in data set [4] was 1 µM in each case. Further, the MIC was 1 µM in data set [5], 1 µM in [6], 0.5 to 1 µM in data set [1] and 0.5 to 1 µM in [2]. The HC10 in [17] is given as >800/>800 μM. Moreover, the HC50 in data set [17] is given as >800/>800 μM. Further, the hemolytic activity result in data set [17] is recorded as “not observed”.
For buforin-2, the “change of SYTOX-Green fluorescence intensity” value in [18] was “the fluorescence intensity is changed”.
